The values below come from patent US20180298405A1, “METHODS AND COMPOSITIONS TO INCREASE HUMAN SOMATIC CELL NUCLEAR TRANSFER (SCNT) EFFICIENCY BY REMOVING HISTONE H3-LYSINE TRIMETHYLATION, AND DERIVATION OF HUMAN NT-ESC” (CHILDREN'S MEDICAL CENTER CORPORATION, priority 2015, published 2018).

What all share (assay type): cell-based
The subject of one series is H3K9me3. Nature of the series: Immunostaining of H3K9me3 in 1-cell mouse SCNT embryos after mRNA injection. Conditions: 1-cell stage, 5 hours after mRNA injection. Here is the method:
Mouse somatic cell nuclear transfer was carried out as described previously (Matoba et al., 2014). Briefly, both recipient MII oocytes and donor cumulus cells were collected from adult BDF1 female mice through superovulation by injecting 7.5 IU of pregnant mare serum gonadotropin (PMSG; Millipore #367222) and 7.5 IU of human chorionic gonadotropin (hCG; Millipore #230734). Fifteen to seventeen hours after the hCG injection, cumulus-oocyte complexes (COCs) were collected from the oviducts and treated briefly with Hepes-buffered potassium simplex-optimized medium (KSOM) containing 300 U/ml bovine testicular hyaluronidase (Calbiochem #385931) to obtain dissociated MII oocytes and cumulus cells. Isolated MII oocytes were enucleated in Hepes-buffered KSOM medium containing 7.5 jig/ml of cytochalasin B (Calbiochem #250233) by using Piezo-driven micromanipulator (Primetech # PMM-150FU). The nuclei of donor cumulus cells were injected into the enucleated oocytes. After 1 h incubation in KSOM, reconstructed SCNT oocytes were activated by incubating in Ca-free KSOM containing 2.5 mM SrCl2 and 5 jig/ml cytochalasin B for 1 h, and further cultured in KSOM with cytochalasin B for 4 h. […] Preimplantation developmental rates were analyzed by Student's T-test. […]

The next series relates to mouse SCNT embryos. Kind of series: Preimplantation development of KDM4A-assisted mouse SCNT embryos. Conditions: cumulus donor cells, mRNA injected at 5-6 hpa; for % blast per 2-cell ± SD: blastocyst stage. As to the method:
B6D2F1/J (BDF1) mice were produced by crossing C57BL/6J females with DBA/2J males, and were used for the collection of both oocyte and somatic nuclear donor for SCNT. All animal experiments were approved by the Institutional Animal Care and Use Committee of Harvard Medical School.
In vitro transcription was performed as described previously (Matoba et al., 2014). Briefly, full length human KDM4A/JHDM3A cDNA was cloned into a pcDNA3.1 plasmid containing poly(A)83 at the 3′ end of cloning site. The catalytic defective mutant form of KDM4A (H188A) was generated using PrimeSTAR mutagenesis kit (TAKARA # R045A). mRNA was synthesized using the mMESSAGE mMACHINE T7 Ultra Kit (Life technologies # AM1345). The synthesized mRNA was dissolved in nuclease-free water. The concentration of mRNA was measured by NanoDrop ND-1000 spectrophotometer (NanoDrop Technologies). Aliquots of mRNA were stored at −80° C. until use.
Mouse somatic cell nuclear transfer was carried out as described previously (Matoba et al., 2014). Briefly, both recipient MII oocytes and donor cumulus cells were collected from adult BDF1 female mice through superovulation by injecting 7.5 IU of pregnant mare serum gonadotropin (PMSG; Millipore #367222) and 7.5 IU of human chorionic gonadotropin (hCG; Millipore #230734). Fifteen to seventeen hours after the hCG injection, cumulus-oocyte complexes (COCs) were collected from the oviducts and treated briefly with Hepes-buffered potassium simplex-optimized medium (KSOM) containing 300 U/ml bovine testicular hyaluronidase (Calbiochem #385931) to obtain dissociated MII oocytes and cumulus cells. Isolated MII oocytes were enucleated in Hepes-buffered KSOM medium containing 7.5 jig/ml of cytochalasin B (Calbiochem #250233) by using Piezo-driven micromanipulator (Primetech # PMM-150FU). The nuclei of donor cumulus cells were injected into the enucleated oocytes. After 1 h incubation in KSOM, reconstructed SCNT oocytes were activated by incubating in Ca-free KSOM containing 2.5 mM SrCl2 and 5 jig/ml cytochalasin B for 1 h, and further cultured in KSOM with cytochalasin B for 4 h. Activated SCNT embryos were washed 5 hrs after the onset of SrCl2 treatment (hours post activation, hpa) and cultured in KSOM in a humidified atmosphere with 5% CO2 at 37.8° C. The SCNT embryos were injected with ˜10 pl of water (control), 1500 ng/μ1 wild-type or mutant (H188A) human KDM4A mRNA at 5-6 hpa by using a Piezo-driven micromanipulator. Preimplantation developmental rates were analyzed by Student's T-test.

A further series deals with human SCNT blastocysts. Nature of the series: Derivation of human NTK-ESCs from KDM4A-assisted SCNT blastocysts. As to the method:
All expanded blastocysts were treated with acid Tyrode solution to remove the zona pellucida, then the entire blastocysts (without removing trophectoderm) were plated onto mitotically-inactivated mouse fibroblasts (MEFs, Global Stem Inc.) in knockout-DMEM supplemented with Knockout Serum Replacement (10% SR, Invitrogen), FBS (10% Hyclone), bFGF (30 ng/ml), human LIF (2000 units/ml, Sigma-Aldrich), and ROCK inhibitor (1 uM, Sigma-Aldrich). The derivation medium was not changed for the next 3 days, then 1/2 medium was replaced with fresh medium without the ROCK inhibitor daily as previously described (Chung et al., 2008). After 3 passages, the amount of FBS was reduced to 2%, replacing it with SR. After 5 passages, the ES cells were cultured in DMEM/F12 supplemented with FGF (8 ng/ml, Invitrogen), SR (18%, Invitrogen), and FBS (2% Hyclone). After the 10 passages, the ES cells were maintained in DMEM/F12 supplemented with FGF (8 ng/ml) and 20% SR.

“And” between values parts separate entries of the source, which are not always exact repeats. Identical values can stand only once.

With “KDM4A mRNA: in vitro transcribed mRNA of full length human KDM4A/JHDM3A cDNA, an H3K9me3 demethylase (SEQ ID NO: 1)”, in the series on H3K9me3, the “H3K9me3 levels in the nucleus of mouse SCNT embryos” value is “greatly reduced H3K9me3 levels”. In addition, in the series on mouse SCNT embryos, the “% 4-cell per 2-cell ± SD” value was 43.3 ± 7.6%; the “% cleaved per 1-cell ± SD” value worked out at 93.7 ± 2.7%; the “% morula per 2-cell ± SD” value turned out to be 35.5 ± 13.5%; the “% blast per 2-cell ± SD” value is 90.3% and 90%. Besides, in the series on mouse SCNT embryos (listed as KDM4A), the “% blast per 2-cell ± SD” value was 23.7 ± 11.6%. In addition, in the series with mouse SCNT embryos (listed as KDM4A WT), the “% blast per 2-cell ± SD” value amounted to 90.3 ± 0.3 %, the “% 4-cell per 2-cell ± SD” value is reported as 96.8 ± 2.7 %, the “% cleaved per 1-cell ± SD” value was determined as 97.0 ± 5.2% and the “% morula per 2-cell ± SD” value is 92.5 ± 3.6 %. In addition, the “stable NT-ESC lines derived” value in the series on human SCNT blastocysts (after five passages, from eight expanded blastocysts) is on record as “four stable NT-ESC lines”. The “expanded blastocysts attached to MEF feeder cells and initiated outgrowth” value with human SCNT blastocysts (of eight expanded blastocysts) is “Seven out of the eight”.
